Measured values taken from ChEMBL document CHEMBL1143638, “Pyrazolopyridinones as functionally selective GABAA ligands” (Bioorg Med Chem Lett, 2005).

What was measured:
[1] = target: T1, GABA-A receptor; alpha-3/beta-3/gamma-2 (Homo sapiens) (UniProt P18507+P28472+P34903); assay: Effective concentration to modulate GABA-mediated chloride ion flux through GABA-A receptor alpha-3-beta-3-gamma-2 expressed in L(tk-) cells; assay type: functional, cell-based
[2] = target: T1, GABA-A receptor; alpha-3/beta-3/gamma-2 (Homo sapiens); assay: Effective current to modulate GABA-mediated chloride ion flux through GABA-A receptor alpha-3-beta-3-gamma-2 expressed in L(tk-) cells; assay type: functional, cell-based
[3] = target: T2, GABA-A receptor; alpha-3/beta-3/gamma-2 (Homo sapiens, UniProt P18507+P28472+P34903); assay: Inhibition of [3H]-Ro- 15-1788 binding to human GABA-A receptor alpha-3-beta-3-gamma-2 expressed in L(tk-) cells; assay type: cell-based
T2 sequence (P18507 whole entry): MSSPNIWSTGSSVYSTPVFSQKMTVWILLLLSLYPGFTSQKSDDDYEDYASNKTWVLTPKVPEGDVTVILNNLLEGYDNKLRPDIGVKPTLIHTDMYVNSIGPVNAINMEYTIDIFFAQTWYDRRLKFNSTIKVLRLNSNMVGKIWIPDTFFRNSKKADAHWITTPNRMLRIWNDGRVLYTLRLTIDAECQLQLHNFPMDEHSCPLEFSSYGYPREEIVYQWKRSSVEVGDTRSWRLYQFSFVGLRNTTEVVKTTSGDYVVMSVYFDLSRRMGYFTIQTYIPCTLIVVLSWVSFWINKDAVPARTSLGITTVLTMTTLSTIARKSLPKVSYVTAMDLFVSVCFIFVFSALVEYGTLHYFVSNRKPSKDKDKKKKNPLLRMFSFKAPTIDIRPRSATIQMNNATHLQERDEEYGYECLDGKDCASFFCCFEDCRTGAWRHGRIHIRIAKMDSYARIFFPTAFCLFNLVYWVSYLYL
T2 sequence (P28472 whole entry): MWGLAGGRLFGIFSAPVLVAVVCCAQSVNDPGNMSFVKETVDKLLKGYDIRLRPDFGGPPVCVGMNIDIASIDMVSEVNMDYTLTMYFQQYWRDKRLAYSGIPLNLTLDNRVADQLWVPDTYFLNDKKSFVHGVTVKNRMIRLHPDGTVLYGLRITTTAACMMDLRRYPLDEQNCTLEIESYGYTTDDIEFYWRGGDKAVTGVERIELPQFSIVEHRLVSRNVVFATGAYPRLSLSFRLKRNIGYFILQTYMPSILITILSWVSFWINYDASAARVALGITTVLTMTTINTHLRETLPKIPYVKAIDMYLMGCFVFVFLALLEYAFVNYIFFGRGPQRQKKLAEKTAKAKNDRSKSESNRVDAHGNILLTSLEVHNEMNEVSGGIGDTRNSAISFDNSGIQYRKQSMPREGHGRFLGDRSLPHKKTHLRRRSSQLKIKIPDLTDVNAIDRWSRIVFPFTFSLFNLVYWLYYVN
T2 sequence (P34903 whole entry): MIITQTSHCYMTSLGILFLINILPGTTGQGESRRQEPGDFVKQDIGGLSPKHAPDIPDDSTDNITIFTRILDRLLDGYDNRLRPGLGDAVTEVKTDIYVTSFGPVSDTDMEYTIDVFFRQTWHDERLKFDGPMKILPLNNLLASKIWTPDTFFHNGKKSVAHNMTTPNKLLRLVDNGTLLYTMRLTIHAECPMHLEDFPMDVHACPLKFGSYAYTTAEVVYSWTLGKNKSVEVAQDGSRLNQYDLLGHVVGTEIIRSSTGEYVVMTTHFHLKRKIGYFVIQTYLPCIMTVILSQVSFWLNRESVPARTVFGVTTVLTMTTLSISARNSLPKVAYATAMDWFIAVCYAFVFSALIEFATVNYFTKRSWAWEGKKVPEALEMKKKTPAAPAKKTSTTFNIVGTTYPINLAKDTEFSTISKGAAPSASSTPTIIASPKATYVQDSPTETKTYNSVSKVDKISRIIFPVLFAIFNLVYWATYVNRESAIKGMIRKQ

[4] = target: T3, GABA-A receptor; alpha-1/beta-3/gamma-2 (Homo sapiens) (UniProt P14867+P18507+P28472); assay: Effective concentration to modulate GABA-mediated chloride ion flux through GABA-A receptor alpha-1-beta-3-gamma-2 expressed in L(tk-) cells; assay type: functional, cell-based
[5] = target: T4, GABA-A receptor; alpha-1/beta-3/gamma-2 (Homo sapiens, UniProt P14867+P18507+P28472); assay: Inhibition of [3H]-Ro- 15-1788 binding to human GABA-A receptor alpha-1-beta-3-gamma-2 expressed in L(tk-) cells; assay type: cell-based
T4 sequence (P14867 whole entry): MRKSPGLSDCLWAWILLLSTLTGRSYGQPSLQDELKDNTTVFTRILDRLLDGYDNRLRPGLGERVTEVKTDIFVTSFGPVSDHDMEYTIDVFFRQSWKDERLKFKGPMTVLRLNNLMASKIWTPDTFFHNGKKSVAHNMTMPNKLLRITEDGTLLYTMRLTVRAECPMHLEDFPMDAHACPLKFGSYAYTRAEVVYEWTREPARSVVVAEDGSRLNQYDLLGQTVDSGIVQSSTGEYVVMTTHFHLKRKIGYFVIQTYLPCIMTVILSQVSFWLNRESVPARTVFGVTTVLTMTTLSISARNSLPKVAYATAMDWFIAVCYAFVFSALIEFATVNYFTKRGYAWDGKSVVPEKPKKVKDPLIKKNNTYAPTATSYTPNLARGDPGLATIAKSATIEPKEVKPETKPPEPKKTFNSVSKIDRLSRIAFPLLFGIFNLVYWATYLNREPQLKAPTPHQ
T4 sequence (P18507 whole entry): T2 sequence (P18507 whole entry)
T4 sequence (P28472 whole entry): T2 sequence (P28472 whole entry)

[6] = target: T3, GABA-A receptor; alpha-1/beta-3/gamma-2 (Homo sapiens); assay: Effective current to modulate GABA-mediated chloride ion flux through GABA-A receptor alpha-1-beta-3-gamma-2 expressed in L(tk-) cells; assay type: functional, cell-based

O=c1c2c[nH]c3c(c-2nn1-c1ccc(Cl)cc1)CCCC3
Efficacy [1]: 0.38
Efficacy [2]: 0.45
Ki [3]: 1.5 nM
Efficacy [4]: 0.14
Ki [5]: 0.29 nM
Efficacy [6]: 0.21
